pIC50: −log10 of the molar value.

The experiment can be described thus: Inhibition of HIV1 YU2 gp120 binding to CD4 expressing Cf2Th-CD4/CCR5 cells assessed as inhibition of viral infection after 48 hrs.
With `O=C(NCc1ccco1)C(=O)Nc1ccc(Br)cc1` [N1-(4-bromophenyl)-N2-(furan-2-ylmethyl)oxalamide], the pIC50 (as a rule, the IC50 on a negative log10 scale, so that one unit is a factor of ten) was less than 4.00.

As to `CN1CCC(CNC(=O)C(=O)Nc2ccc(Cl)c(F)c2)CC1` [N1-(4-chloro-3-fluorophenyl)-N2-((1-methylpiperidin-4-yl)methyl)oxalamide], the pIC50 is less than 4.00.

As for `CC1(C)CC(NC(=O)CC(=O)Nc2ccc(Br)cc2)CC(C)(C)N1` [N1-(4-bromophenyl)-N3-(2,2,6,6-tetramethylpiperidin-4-yl)malonamide], the pIC50 is less than 4.00.

For `CC1(C)CC(NC(=O)C(=O)Nc2ccc(Cl)c(F)c2)CC(C)(C)O1` [N1-(4-chloro-3-fluorophenyl)-N2-(2,2,6,6-tetramethyltetrahydro-2H-pyran-4-yl)oxalamide], the pIC50 was less than 4.00.

As to `CC(C)Oc1cc(NC(=O)C(=O)NC2CC(C)(C)NC(C)(C)C2)ccc1Cl` [N1-(4-chloro-3-isopropoxyphenyl)-N2-(2,2,6,6-tetramethylpiperidin-4-yl)oxalamide], the pIC50 was less than 4.00.

Regarding `CN1C(C)(C)CC(NC(=O)C(=O)Nc2ccc(Cl)c(F)c2)CC1(C)C` [N1-(4-chloro-3-fluorophenyl)-N2-(1,2,2,6,6-pentamethylpiperidin-4-yl)oxalamide], the pIC50 was 4.18.

In the case of `O=C(Nc1ccc(Cl)c(F)c1)C(=O)NC1CCc2[nH]ncc2C1` (stereo not drawn) [N1-(4-chloro-3-fluorophenyl)-N2-(4,5,6,7-tetrahydro-1H-indazol-5-yl)oxalamide], the pIC50 was less than 4.00.

As to `O=C(Nc1ccc(Br)cc1)c1cc(CN2CCCC2)on1` [N-(4-bromophenyl)-5-(pyrrolidin-1-ylmethyl)isoxazole-3-carboxamide], the pIC50 is less than 4.00.

As to `CC1(C)CC(=NNC(=O)c2[nH]nc3c2CCCC3)CC(C)(C)N1` [2,2,6,6-tetramethyl-4-(2-(4,5,6,7-tetrahydro-1H-indazole-3-carbonyl)hydrazono)piperidinium], the pIC50 was less than 4.00.

As to `CN1CCCC(NC(=O)C(=O)Nc2ccc(Cl)c(F)c2)C1` (stereo not drawn) [N1-(4-chloro-3-fluorophenyl)-N2-(1-methylpiperidin-3-yl)oxalamide], the pIC50 is less than 4.00.

As to `CN1CCC(CNC(=O)C(=O)Nc2ccc(Cl)c(F)c2)(N(C)C)CC1` [N1-(4-chloro-3-fluorophenyl)-N2-((4-(dimethylamino)-1-methylpiperidin-4-yl)methyl)oxalamide], the pIC50 is less than 4.00.

Regarding `CC(NC(=O)C(=O)Nc1ccc(Cl)c(F)c1)c1ccc2c(c1)NC(=O)CO2` (stereo not drawn) [N1-(4-chloro-3-fluorophenyl)-N2-(1-(3-oxo-3,4-dihydro-2H-benzo[b][1,4]oxazin-6-yl)ethyl)oxalamide], the pIC50 was less than 4.00.

For the molecule `O=C(Nc1ccc(Cl)cc1)c1cc(-n2cnnc2)n[nH]1` [N-(4-chlorophenyl)-5-(4H-1,2,4-triazol-4-yl)-1H-pyrazole-3-carboxamide], the pIC50 was less than 4.00.

In the case of `Cc1n[nH]c(C)c1CNC(=O)C(=O)Nc1ccc(Cl)c(F)c1` [N1-(4-chloro-3-fluorophenyl)-N2-((3,5-dimethyl-1H-pyrazol-4-yl)methyl)oxalamide], the pIC50 was 4.19.

In the case of `O=C(NCC1OCCc2ccccc21)C(=O)Nc1ccc(Br)cc1` (stereo not drawn) [N1-(4-bromophenyl)-N2-(isochroman-1-ylmethyl)oxalamide], the pIC50 is less than 4.00.

Consider `O=C(COc1ccc(Cl)cc1)Nc1ccc2[nH]c(=O)[nH]c2c1` [2-(4-chlorophenoxy)-N-(2-oxo-2,3-dihydro-1H-benzo[d]imidazol-5-yl)acetamide], for which the pIC50 is less than 4.00.

As to `CC1CN(CCNC(=O)C(=O)Nc2ccc(Cl)c(F)c2)CC(C)O1` (stereo not drawn) [N1-(4-chloro-3-fluorophenyl)-N2-(2-(2,6-dimethylmorpholino)ethyl)oxalamide], the pIC50 is less than 4.00.

Take `CCOc1cc(Cl)ccc1NC(=O)C(=O)NC1CC(C)(C)NC(C)(C)C1` [N1-(4-chloro-2-ethoxyphenyl)-N2-(2,2,6,6-tetramethylpiperidin-4-yl)oxalamide]: the pIC50 is less than 4.00.

As for `C[C@H](Sc1nc(N)cc(N)n1)C(=O)Nc1ccc(Cl)cc1` [(S)-N-(4-chlorophenyl)-2-(4,6-diaminopyrimidin-2-ylthio)propanamide], the pIC50 was less than 4.00.

Take `Cc1ccc(C(C)C)c(OCC(=O)NNC(=O)Nc2ccc(Cl)cc2)c1` [N-(4-chlorophenyl)-2-(2-(2-isopropyl-5-methylphenoxy)acetyl)hydrazinecarboxamide]: the pIC50 is less than 4.00.

As to `CC1(C)C2CCC1(C)C(NC(=O)C(=O)Nc1ccc(Cl)c(F)c1)C2` (stereo not drawn) [N1-(4-chloro-3-fluorophenyl)-N2-(1,7,7-trimethylbicyclo[2.2.1]heptan-2-yl)oxalamide], the pIC50 is less than 4.00.

Turning to `O=C(NCCc1cnc[nH]1)Nc1ccc(Cl)c(Cl)c1` [1-(2-(1H-imidazol-5-yl)ethyl)-3-(3,4-dichlorophenyl)urea], the pIC50 is less than 4.00.

Take `O=C(COC(=O)c1n[nH]c2ccccc12)Nc1ccc(Cl)cn1` [2-(5-chloropyridin-2-ylamino)-2-oxoethyl 1H-indazole-3-carboxylate]: the pIC50 is less than 4.00.

`CC(C)COc1cc(Cl)ccc1NC(=O)C(=O)NC1CC(C)(C)NC(C)(C)C1` [N1-(4-chloro-2-isobutoxyphenyl)-N2-(2,2,6,6-tetramethylpiperidin-4-yl)oxalamide]: the pIC50 was less than 4.00.

Take `COc1cccc(CNC(=O)C(=O)Nc2ccc(Cl)cc2)c1` [N1-(4-chlorophenyl)-N2-(3-methoxybenzyl)oxalamide]: the pIC50 is less than 4.00.

`O=C(NCC(c1ccc(Cl)cc1)N1CCCC1)C(=O)Nc1ccc(Cl)c(F)c1` (stereo not drawn) [N1-(4-chloro-3-fluorophenyl)-N2-(2-(4-chlorophenyl)-2-(pyrrolidin-1-yl)ethyl)oxalamide]: the pIC50 is 4.21.

Take `CC(C)N1CCCCC1CCNC(=O)C(=O)Nc1ccc(Cl)c(F)c1` (stereo not drawn) [N1-(4-chloro-3-fluorophenyl)-N2-(2-(1-isopropylpiperidin-2-yl)ethyl)oxalamide]: the pIC50 was 4.57.

In the case of `CC(C)(CNC(=O)C(=O)Nc1ccc(Cl)c(F)c1)N1CCOCC1` [N1-(4-chloro-3-fluorophenyl)-N2-(2-methyl-2-morpholinopropyl)oxalamide], the pIC50 was less than 4.00.

As for `CC(C)c1ccccc1NC(=O)C(=O)NC1CC(C)(C)NC(C)(C)C1` [N1-(2-isopropylphenyl)-N2-(2,2,6,6-tetramethylpiperidin-4-yl)oxalamide], the pIC50 is less than 4.00.

With `CC1(C)CC(NC(=O)C(=O)Nc2ccc3ccccc3c2)CC(C)(C)N1` [N1-(naphthalen-2-yl)-N2-(2,2,6,6-tetramethylpiperidin-4-yl)oxalamide], the pIC50 is less than 4.00.

With `CN(C(=O)C(=O)NC1CC(C)(C)NC(C)(C)C1)c1ccc(Cl)cc1` [N1-(4-chlorophenyl)-N1-methyl-N2-(2,2,6,6-tetramethylpiperidin-4-yl)oxalamide], the pIC50 is less than 4.00.

Take `CC1(C)CC(NC(=O)C(=O)Nc2ccc(Cl)c(OCc3ccccc3)c2)CC(C)(C)N1` [N1-(3-(benzyloxy)-4-chlorophenyl)-N2-(2,2,6,6-tetramethylpiperidin-4-yl)oxalamide]: the pIC50 is less than 4.00.

Consider `CN1CCCC(CNC(=O)C(=O)Nc2ccc(Cl)c(F)c2)C1` (stereo not drawn) [N1-(4-chloro-3-fluorophenyl)-N2-((1-methylpiperidin-3-yl)methyl)oxalamide], for which the pIC50 was less than 4.00.

These data come from BindingDB's records for doi:10.1016/j.bmc.2010.11.049 (Bryn Mawr College, 2011).
